Results: paper PMC8318231, “Rate-of-Kill (RoK) assays to triage large compound sets for Chagas disease drug discovery: Application to GSK Chagas Box” (PLoS Neglected Tropical Diseases, 2021)

Columns and labels:
TcCYP51 = settings: formerly reported; cited from earlier work
[1] = tested on: T. cruzi Tulahuen trypomastigotes; experiment: T. cruzi trypomastigote assay (Cell Titer-Glo viability, ATP luminescence); type: cell-based, Trypanosoma cruzi; settings: for Trypomastigotes pIC50 48 hours: 48 hours incubation; for Trypomastigotes pIC50 48 hours / Trypomastigotes pIC50 72 hours: pIC50 = -log10 IC50 in molar units; for Trypomastigotes pIC50 72 hours: 72 hours incubation; for 48 pIC50 / 72 pIC50: trypomastigote assay; for 48 pIC50: 48 h; for 72 pIC50: 72 h
Protocol: T. cruzi Tulahuen trypomastigotes obtained from the supernatants of LLC-MK2 infected cultures in a 225 cm^2 T-Flasks harvested between days 5 and 8 of infection. Trypomastigotes (5 × 10^4 per well) in 50 μl of DMEM/ 2% FBS were dispensed into white 384 plates (Greiner) pre-stamped with 250 nl compound a single-shot final concentration of 5 μM, or in dose response. […] Cell Titer-Glo cell viability solution (Promega) was added to each well (50 μL) incubated at room temperature for 10 min and luminescence read by Envision plate reader (Perkin Elmer). This assay quantifies the amount of ATP present which is directly proportional to the number of metabolically active cells. All data were normalised (100% effect control for no cells and 0% effect control for DMSO). This assay was adapted from MacLean et al., 2018 [22].

**Q.** Which “CYP51 pIC50” value (TcCYP51) does the source give for CC1(C)CCC(=Cc2ccc(Cl)cc2)CC1(O)Cn1ccnc1 (centres unmarked) [TCMDC-125222] here?
**A.** Its value is 7.3.

**Q.** What about the “Trypomastigotes pIC50 48 hours” value [1] of the same compound?
**A.** Its value is 5.1.

**Q.** What about the “Trypomastigotes pIC50 72 hours” value [1] of the same compound?
**A.** The value was 4.8.

**Q.** Which “CYP51 pIC50” value (TcCYP51) does the source give for Nc1ncnc2c1ncn2[C@@H]1O[C@H](CO)C[C@H]1O [TCMDC-143080] here?
**A.** The value was < 4.

**Q.** What about the “Trypomastigotes pIC50 48 hours” value [1] of the same compound?
**A.** Its value is < 4.3.

**Q.** And the “Trypomastigotes pIC50 72 hours” value [1]?
**A.** The value was 6.

**Q.** What does the source list for O=C1CCCCCC1(Cc1cnc[nH]1)c1ccc(Cl)cc1Cl (centres unmarked) [TCMDC-143081]?
**A.** CYP51 pIC50 (TcCYP51): 7; Trypomastigotes pIC50 48 hours [1]: < 4.3; Trypomastigotes pIC50 72 hours [1]: < 4.3; 48 pIC50 ([1]; figure 1A): < 4.3; 72 pIC50 ([1]; figure 1A): < 4.3; 72 pIC50 ([1]; figure 1B): < 4.3

**Q.** Which “CYP51 pIC50” value (TcCYP51) does the source give for Cl.Clc1ccc(C(CC2CCCCO2)Cn2cncn2)c(Cl)c1 (centres unmarked) [TCMDC-143082] here?
**A.** Its value is 6.6.

**Q.** And the “Trypomastigotes pIC50 48 hours” value [1]?
**A.** The value was < 4.3.

**Q.** What about the “Trypomastigotes pIC50 72 hours” value [1] of the same compound?
**A.** Its value is < 4.3.

**Q.** What about the “48 pIC50” value ([1]; figure 1A) of the same compound?
**A.** Its value is < 4.3.

**Q.** What about the “72 pIC50” value ([1]; figure 1A) of the same compound?
**A.** Its value is < 4.3.

**Q.** And the “72 pIC50” value ([1]; figure 1B)?
**A.** The value was < 4.3.

**Q.** With Cn1nc([N+](=O)[O-])nc1N1CCCCC1 [TCMDC-143088] as the compound, how does the “CYP51 pIC50” value (TcCYP51) read?
**A.** The value was < 4.

**Q.** What about the “Trypomastigotes pIC50 48 hours” value [1] of the same compound?
**A.** Its value is < 4.3.

**Q.** And the “Trypomastigotes pIC50 72 hours” value [1]?
**A.** The value was < 4.3.

**Q.** And the “48 pIC50” value ([1]; figure 1A)?
**A.** The value was < 4.3.

**Q.** And the “72 pIC50” value ([1]; figure 1A)?
**A.** Its value is < 4.3.

**Q.** And the “72 pIC50” value ([1]; figure 1B)?
**A.** Its value is < 4.3.

**Q.** Which “CYP51 pIC50” value (TcCYP51) does the source give for O=C(NCc1ccc(-n2cccc2)cc1)c1nc(Cn2ccc([N+](=O)[O-])n2)no1 [TCMDC-143103] here?
**A.** The value was < 4.

**Q.** And the “Trypomastigotes pIC50 48 hours” value [1]?
**A.** Its value is 6.

**Q.** And the “Trypomastigotes pIC50 72 hours” value [1]?
**A.** The value was 5.9.

**Q.** What does the source list for COc1cccc(-c2cc(C(F)(F)F)nc(-n3ccc([N+](=O)[O-])n3)n2)c1 [TCMDC-143105]?
**A.** CYP51 pIC50 (TcCYP51): < 4; Trypomastigotes pIC50 48 hours [1]: 5.8; Trypomastigotes pIC50 72 hours [1]: 6

**Q.** Which “CYP51 pIC50” value (TcCYP51) does the source give for CN(C)CCN(C)Cc1ccc(F)cc1NS(=O)(=O)c1ccc(Cl)c(Cl)c1 [TCMDC-143118] here?
**A.** Its value is < 4.

**Q.** What about the “Trypomastigotes pIC50 48 hours” value [1] of the same compound?
**A.** Its value is 5.9.

**Q.** And the “Trypomastigotes pIC50 72 hours” value [1]?
**A.** The value was 5.9.

**Q.** What about the “48 pIC50” value ([1]; figure 1A) of the same compound?
**A.** Its value is 5.9.

**Q.** And the “72 pIC50” value ([1]; figure 1A)?
**A.** The value was 5.9.

**Q.** And the “72 pIC50” value ([1]; figure 1B)?
**A.** The value was 5.9.

**Q.** Which “Trypomastigotes pIC50 48 hours” value [1] does the source give for N#Cc1nc(C=Cc2ccccc2)oc1NCc1cccnc1 [TCMDC-143120] here?
**A.** Its value is 4.5.

**Q.** And the “Trypomastigotes pIC50 72 hours” value [1]?
**A.** Its value is < 4.3.

**Q.** Which “CYP51 pIC50” value (TcCYP51) does the source give for Cn1nc([N+](=O)[O-])nc1Oc1ccc(C(=O)c2ccccc2)cc1 [TCMDC-143126] here?
**A.** The value was < 4.

**Q.** And the “Trypomastigotes pIC50 48 hours” value [1]?
**A.** The value was 6.

**Q.** What about the “Trypomastigotes pIC50 72 hours” value [1] of the same compound?
**A.** The value was 6.1.

**Q.** For O=S(=O)(NCC(c1cccnc1)N1CCN(c2ccccc2F)CC1)c1ccc(F)cc1 (centres unmarked) [TCMDC-143142], which “CYP51 pIC50” value (TcCYP51) is on record?
**A.** The value was 7.1.

**Q.** What about the “Trypomastigotes pIC50 48 hours” value [1] of the same compound?
**A.** The value was < 4.3.

**Q.** And the “Trypomastigotes pIC50 72 hours” value [1]?
**A.** Its value is < 4.3.

**Q.** What about the “48 pIC50” value ([1]; figure 1A) of the same compound?
**A.** The value was < 4.3.

**Q.** What about the “72 pIC50” value ([1]; figure 1A) of the same compound?
**A.** The value was < 4.3.

**Q.** What about the “72 pIC50” value ([1]; figure 1B) of the same compound?
**A.** Its value is < 4.3.

**Q.** For N#Cc1cc([N+](=O)[O-])ccc1NC1CCCCCC1 [TCMDC-143143], which “CYP51 pIC50” value (TcCYP51) is on record?
**A.** The value was < 4.

**Q.** And the “Trypomastigotes pIC50 48 hours” value [1]?
**A.** Its value is < 4.3.

**Q.** And the “Trypomastigotes pIC50 72 hours” value [1]?
**A.** Its value is < 4.3.

**Q.** What about the “48 pIC50” value ([1]; figure 1A) of the same compound?
**A.** Its value is < 4.3.

**Q.** And the “72 pIC50” value ([1]; figure 1A)?
**A.** The value was < 4.3.

**Q.** And the “72 pIC50” value ([1]; figure 1B)?
**A.** Its value is < 4.3.

**Q.** What does the source list for C=CCOCC1Cn2nc([N+](=O)[O-])nc2O1 (centres unmarked) [TCMDC-143149]?
**A.** CYP51 pIC50 (TcCYP51): < 4; Trypomastigotes pIC50 48 hours [1]: < 4.3; Trypomastigotes pIC50 72 hours [1]: < 4.3; 48 pIC50 ([1]; figure 1A): < 4.3; 72 pIC50 ([1]; figure 1A): < 4.3; 72 pIC50 ([1]; figure 1B): < 4.3

**Q.** What does the source list for Cc1ccc(NC(=O)c2ccc(Cl)c(NC(=O)c3ccc([N+](=O)[O-])cc3)c2)cc1 [TCMDC-143150]?
**A.** CYP51 pIC50 (TcCYP51): < 4; Trypomastigotes pIC50 48 hours [1]: 5.8; Trypomastigotes pIC50 72 hours [1]: 5.6

**Q.** For C=CCn1nc([N+](=O)[O-])nc1Oc1ccc(Cl)cc1Cl [TCMDC-143151], which “CYP51 pIC50” value (TcCYP51) is on record?
**A.** Its value is 4.7.

**Q.** What about the “Trypomastigotes pIC50 48 hours” value [1] of the same compound?
**A.** Its value is 6.1.

**Q.** What about the “Trypomastigotes pIC50 72 hours” value [1] of the same compound?
**A.** Its value is 6.3.

**Q.** Which “CYP51 pIC50” value (TcCYP51) does the source give for Cc1c(CNC(=O)c2ccc(Cn3cc(Cl)c([N+](=O)[O-])n3)cc2)cnn1C [TCMDC-143153] here?
**A.** Its value is < 4.

**Q.** What about the “Trypomastigotes pIC50 48 hours” value [1] of the same compound?
**A.** Its value is 4.7.

**Q.** What about the “Trypomastigotes pIC50 72 hours” value [1] of the same compound?
**A.** The value was 5.3.

**Q.** With O=C(Nc1ccc(C(=O)N2CCCC2c2ccc3c(c2)OCCCO3)cc1)c1ccco1 (centres unmarked) [TCMDC-143198] as the compound, how does the “CYP51 pIC50” value (TcCYP51) read?
**A.** Its value is 4.2.

**Q.** With CN(Cc1nnnn1C1CCN(Cc2ccc(-n3ccnc3)cc2)CC1)c1ccc(F)cc1F [TCMDC-143321] as the compound, how does the “CYP51 pIC50” value (TcCYP51) read?
**A.** The value was 6.9.

**Q.** For CN(Cc1ccccc1)Cc1nnnn1C1CCN(Cc2ccc(-n3ccnc3)cc2)CC1 [TCMDC-143322], which “CYP51 pIC50” value (TcCYP51) is on record?
**A.** Its value is 7.3.
